Reference: patent US4476120A, “Thiolic derivatives of erythromycin having therapeutic activity, and pharmaceutical compositions containing them” (Sigma Tau Indistrie Farmaceutiche Riunites, p.A, priority 1982, dated 1984)
Converted amounts (≈) assume the structure as drawn. Where two headings read alike, the source gives them in different places.

What was measured:
[1] = tested on: Strept. haemolyticus SS 17; type: cell-based; settings: Brain Heart Infusion, estolate and RV11-RV15 previously hydrolized, unit assumed
S. heidelberg SS 18 = type: cell-based; settings: Brain Heart Infusion, estolate and RV11-RV15 previously hydrolized, unit assumed
S. lutea ATCC 9341 = type: cell-based; settings: Brain Heart Infusion, estolate and RV11-RV15 previously hydrolized, unit assumed
H. influentiae SS 02 = type: cell-based; settings: Brain Heart Infusion, estolate and RV11-RV15 previously hydrolized, unit assumed
Kl. aerogenes SS 71 = type: cell-based; settings: Brain Heart Infusion, estolate and RV11-RV15 previously hydrolized, unit assumed
E. coli SS 04 = type: cell-based; settings: Brain Heart Infusion, estolate and RV11-RV15 previously hydrolized, unit assumed
Staph. aureus SS 09 = type: cell-based; settings: Brain Heart Infusion, estolate and RV11-RV15 previously hydrolized, unit assumed
E. cloacae SS 07 = type: cell-based; settings: Brain Heart Infusion, estolate and RV11-RV15 previously hydrolized, unit assumed
C. diphtheriae SS 19 = type: cell-based; settings: Brain Heart Infusion, estolate and RV11-RV15 previously hydrolized, unit assumed
N. gonorreae SS 27 = type: cell-based; settings: Brain Heart Infusion, estolate and RV11-RV15 previously hydrolized, unit assumed
B. subtilis SS 127 = type: cell-based; settings: Brain Heart Infusion, estolate and RV11-RV15 previously hydrolized, unit assumed
Citrobacter SS 05 = type: cell-based; settings: Brain Heart Infusion, estolate and RV11-RV15 previously hydrolized, unit assumed
[2] = tested on: Strept. haemolyticus SS 18; type: cell-based; settings: Brain Heart Infusion, estolate and RV11-RV15 previously hydrolized, unit assumed
Citrobacter SS 09 = type: cell-based; settings: Brain Heart Infusion, estolate and RV11-RV15 previously hydrolized, unit assumed
E. coli SS 05 = type: cell-based; settings: Brain Heart Infusion, estolate and RV11-RV15 previously hydrolized, unit assumed
Br. melitensis SS 19 = type: cell-based; settings: unit assumed
E. coli SS 07 = type: cell-based; settings: Brain Heart Infusion, estolate and RV11-RV15 previously hydrolized, unit assumed
Sr. marcescens SS 03 = type: cell-based; settings: Brain Heart Infusion, estolate and RV11-RV15 previously hydrolized, unit assumed
Staph. aureus SS 08 = type: cell-based; settings: Brain Heart Infusion, estolate and RV11-RV15 previously hydrolized, unit assumed
B. cereus ATCC 11778 = type: cell-based; settings: Brain Heart Infusion, estolate and RV11-RV15 previously hydrolized, unit assumed
[3] = Histological examination of bronchi after SO2 inhalation; type: in vivo, Sprague Dawley male rats; settings: oral, 500 mg/kg
S. infantis SS 08 = type: cell-based; settings: Brain Heart Infusion, estolate and RV11-RV15 previously hydrolized, unit assumed
B. anthranis SS 08 = type: cell-based; settings: Brain Heart Infusion, estolate and RV11-RV15 previously hydrolized, unit assumed
C. albicans SS 04 = type: cell-based; settings: Brain Heart Infusion, estolate and RV11-RV15 previously hydrolized, unit assumed
D. pneumoniae SS 23 [4] = assay: Experimental infection induced by D. pneumoniae SS 23; type: in vivo, Swiss white mice; settings: os; D. pneumoniae SS 23; mg/kg of erythromycin; survival after 7 days; 10080 min
Protocol: Swiss white mice of 20 g body weight were used, infected by parenteral administration of lethal amounts of pathogenic […] of Staph. aureus SS 07 and D. pneumoniae SS 23.
The antibiotics were administered at the time of injecting the infecting germ and 6 and 24 hours later. On the basis of the survival after 7 days, the ED50 values were determined, as reported in the following table II and III, wherein the reliability limits are indicated in brackets.

[5] = Mucolytic activity: obstruction of the bronchial tract after SO2 inhalation; type: in vivo, Sprague Dawley male rats; settings: oral, 500 mg/kg; SO2, 15 days
Pr. vulgaris SS 10 = type: cell-based; settings: Brain Heart Infusion, estolate and RV11-RV15 previously hydrolized, unit assumed
H. tubercolosis SS 03 = type: cell-based; settings: Brain Heart Infusion, estolate and RV11-RV15 previously hydrolized, unit assumed
From the text: (§1) In the following table I the MIC/ml values are indicated corresponding to the lowest concentration capable of inducing a complete inhibition of the bacterial development.

Kl. pneumoniae SS 04 = type: cell-based; settings: Brain Heart Infusion, estolate and RV11-RV15 previously hydrolized, unit assumed
From the text: as §1

Pr. mirabilis SS 09 = type: cell-based; settings: Brain Heart Infusion, estolate and RV11-RV15 previously hydrolized, unit assumed
Staph. aureus SS 07 = type: cell-based; settings: Brain Heart Infusion, estolate and RV11-RV15 previously hydrolized, unit assumed
[6] = in vivo; for Hematic levels in the rat: po, 100 mg/kg
E. coli SS 06 = type: cell-based; settings: Brain Heart Infusion, estolate and RV11-RV15 previously hydrolized, unit assumed
D. pneumoniae SS 23 [7] = type: cell-based; settings: Brain Heart Infusion, estolate and RV11-RV15 previously hydrolized, unit assumed
Ps. aeruginosa SS 10 = type: cell-based; settings: Brain Heart Infusion, estolate and RV11-RV15 previously hydrolized, unit assumed
Staph. albus SS 04 = type: cell-based; settings: Brain Heart Infusion, estolate and RV11-RV15 previously hydrolized, unit assumed
B. subtilis ATCC 6633 = type: cell-based; settings: Brain Heart Infusion, estolate and RV11-RV15 previously hydrolized, unit assumed
Br. abortus SS 7 = type: cell-based; settings: Brain Heart Infusion, estolate and RV11-RV15 previously hydrolized, unit assumed
[8] = Hematic levels in the healthy volunteer; type: in vivo, healthy volunteers; settings: oral, 500 mg of erythromycin, average
From the text: For the dosing, the microbiological method using a B. subtilis strain was adopted.

N. meningitidis SS 04 = type: cell-based; settings: Brain Heart Infusion, estolate and RV11-RV15 previously hydrolized, unit assumed
Cl. tetani SS 17 = type: cell-based; settings: Brain Heart Infusion, estolate and RV11-RV15 previously hydrolized, unit assumed
E. aerogenes SS 011 = type: cell-based; settings: Brain Heart Infusion, estolate and RV11-RV15 previously hydrolized, unit assumed
B. anthranis SS 09 = type: cell-based; settings: B. anthranis SS 09 (14 bis); Brain Heart Infusion; estolate and RV11-RV15 previously hydrolized; unit assumed
Acute toxicity = type: in vivo; settings: mouse, in vivo, po, 14400 min
Protocol: The acute toxicity was assessed in Swiss white mice by oral and intravenous route. The LD50 values have been calculated by the methods of Probits, starting from the mortality recorded 10 days after the treatment.

Strept. faecalis SS 19 = type: cell-based; settings: Brain Heart Infusion, estolate and RV11-RV15 previously hydrolized, unit assumed
Staph. albus SS 03 = type: cell-based; settings: Brain Heart Infusion, estolate and RV11-RV15 previously hydrolized, unit assumed
H. pertussis SS 03 = type: cell-based; settings: Brain Heart Infusion, estolate and RV11-RV15 previously hydrolized, unit assumed

In the case of `CCC(=O)O[C@H]1[C@H](O[C@@H]2[C@@H](C)[C@H](O[C@H]3C[C@@](C)(OC)[C@@H](O)[C@H](C)O3)[C@@H](C)C(=O)O[C@H](CC)[C@@](C)(O)[C@H](O)[C@@H](C)C(=O)[C@H](C)C[C@@]2(C)O)O[C@H](C)C[C@@H]1N(C)C` [RV14, erythromycin-monopropionate-S-carboxymethyl cysteinate], the MIC [1] is reported as 1.5 µg/mL (≈ 1.9 µM), the MIC (S. heidelberg SS 18) is reported as 100 µg/mL (≈ 127 µM) and the MIC (S. lutea ATCC 9341) is reported as 0.01 µg/mL (≈ 0.0127 µM). The MIC (H. influentiae SS 02) was 1.5 µg/mL (≈ 1.9 µM), the MIC (Kl. aerogenes SS 71) was 100 µg/mL (≈ 127 µM) and the MIC (E. coli SS 04) was 100 µg/mL (≈ 127 µM). The MIC (Staph. aureus SS 09) was 0.1 µg/mL (≈ 0.127 µM), the MIC (E. cloacae SS 07) was > 200 µg/mL and the MIC (C. diphtheriae SS 19) was 0.01 µg/mL (≈ 0.0127 µM). The MIC (N. gonorreae SS 27) was 0.8 µg/mL (≈ 1.01 µM), the MIC (B. subtilis SS 127) was 0.05 µg/mL (≈ 0.0633 µM) and the MIC (Citrobacter SS 05) was > 200 µg/mL. For the same molecule, the MIC [2] was 0.8 µg/mL (≈ 1.01 µM), the MIC (Citrobacter SS 09) was > 200 µg/mL and the MIC (E. coli SS 05) was 50 µg/mL (≈ 63.3 µM). It also gave an MIC (Br. melitensis SS 19) of 3 µg/mL (≈ 3.8 µM), an MIC (E. coli SS 07) of 50 µg/mL (≈ 63.3 µM) and an MIC (Sr. marcescens SS 03) of 200 µg/mL (≈ 253 µM). The MIC (Staph. aureus SS 08) was 0.05 µg/mL (≈ 0.0633 µM), the MIC (B. cereus ATCC 11778) was 0.4 µg/mL (≈ 0.506 µM) and the “histological appearance of non obstructed bronchi” value ([3]; free non obstructed) was “presence of bronchi having almost normal appearance”. For the same molecule, the “histological appearance of obstructed bronchial tract” value ([3]; obstructed) was “fully like that of the control animals”, the MIC (S. infantis SS 08) was 100 µg/mL (≈ 127 µM) and the MIC (B. anthranis SS 08) was 0.4 µg/mL (≈ 0.506 µM). For the same molecule, the MIC (C. albicans SS 04) was 200 µg/mL (≈ 253 µM), the “ED50 (reliability limits)” value (D. pneumoniae SS 23 [4]) was 123.74 (148.77-102.92) mg/kg and the “Partial obstruction (% incidence)” value [5] was 13.33%. The “Total obstruction, compact plug (% incidence)” value [5] was 26.66%, the “Total obstruction, nodular mass (% incidence)” value [5] was 6.66% and the “Total obstruction, pimply mass (% incidence)” value [5] was 6.66%. The MIC (Pr. vulgaris SS 10) was > 200 µg/mL, the MIC (H. tubercolosis SS 03) was 50 µg/mL (≈ 63.3 µM) and the MIC (Kl. pneumoniae SS 04) was 100 µg/mL (≈ 127 µM). For the same molecule, the MIC (Pr. mirabilis SS 09) was > 200 µg/mL, the MIC (Staph. aureus SS 07) was 0.025 µg/mL (≈ 0.0316 µM) and the “Hematic levels in the rat” value ([6]; 0.3 h) was 0.72 µg/mL. The “Hematic levels in the rat” value ([6]; 1 h) was 1.85 µg/mL, the “Hematic levels in the rat” value ([6]; 2 h) was 2.55 µg/mL and the “Hematic levels in the rat” value ([6]; 3 h) was 1.39 µg/mL. For the same molecule, the “Hematic levels in the rat” value ([6]; 4 h) was 0.65 µg/mL, the “Hematic levels in the rat” value ([6]; 5 h) was 0.54 µg/mL and the “Hematic levels in the rat” value ([6]; 6 h) was 0.07 µg/mL. For the same molecule, the “absorption by oral route (in words)” value ([6]; rat) was “absorbed by oral route in a rate practically analogous to that of erythromycin estolate”, the MIC (E. coli SS 06) was 25 µg/mL (≈ 31.6 µM) and the MIC (D. pneumoniae SS 23 [7]) was 0.05 µg/mL (≈ 0.0633 µM). The MIC (Ps. aeruginosa SS 10) was 100 µg/mL (≈ 127 µM), the MIC (Staph. albus SS 04) was 0.05 µg/mL (≈ 0.0633 µM) and the MIC (B. subtilis ATCC 6633) was 0.025 µg/mL (≈ 0.0316 µM). The MIC (Br. abortus SS 7) was 12 µg/mL (≈ 15.2 µM), the “Hematic levels in the healthy volunteer” value ([8]; 0.30 hours, 18 min) was 1.20 µg/mL and the “Hematic levels in the healthy volunteer” value ([8]; 1 hour, 60 min) was 1.78 µg/mL. For the same molecule, the “Hematic levels in the healthy volunteer” value ([8]; 2 hours, 120 min) was 2.28 µg/mL, the “Hematic levels in the healthy volunteer” value ([8]; 3 hours, 180 min) was 1.60 µg/mL and the “Hematic levels in the healthy volunteer” value ([8]; 4 hours, 240 min) was 1.21 µg/mL. For the same molecule, the MIC (N. meningitidis SS 04) was 0.8 µg/mL (≈ 1.01 µM), the MIC (Cl. tetani SS 17) was 0.2 µg/mL (≈ 0.253 µM) and the MIC (E. aerogenes SS 011) was 50 µg/mL (≈ 63.3 µM). For the same molecule, the MIC (B. anthranis SS 09) was 0.8 µg/mL (≈ 1.01 µM), the “LD50 (reliability limits)” value (Acute toxicity) was 3000 mg·kg and the MIC (Strept. faecalis SS 19) was 0.05 µg/mL (≈ 0.0633 µM). The MIC (Staph. albus SS 03) was 0.1 µg/mL (≈ 0.127 µM) and the MIC (H. pertussis SS 03) was 0.4 µg/mL (≈ 0.506 µM).
